Experimental data published in patent US9371286B2, “Pharmaceutical composition with enhanced efficacy for inhibiting angiogenesis” (INDUSTRY-ACADEMIC COOPERATION FOUNDATION, YONSEI UNIVERSITY, priority 2011, dated 2016).

What was measured:
HIF-1α = HIF-1α stability analysis (western blot, hypoxia); assay type: cell-based; conditions: HepG2 cells pretreated 30 minutes, then 1% O2 for 4 hours; for IC50: HIF-1α protein level by western blot, read-out: IC50 values of respective compounds on HIF-1 α; for hypoxia-induced HIF-1α protein accumulation: western blot
Method: HepG2 cells were pretreated with indicated concentrations of the synthetic derivatives for 30 minutes and then exposed to 1% O2 for 4 hours. HIF-1α and tubulin protein levels were analyzed using western blot analysis.

UQCRB = target: T1, UQCRB (Homo sapiens, UniProt P14927); test: Surface plasmon resonance (BIAcore) competitive binding analysis; conditions: for binding efficiency of UQCRB to biotinylated terpestacin (BT) after co-incubation: competitor 25 μM incubated with purified UQCRB protein 25 μM, BIAcore 2000; for direct binding to UQCRB: concluded from SPR competition with biotinylated terpestacin
T1 sequence (P14927 1-111): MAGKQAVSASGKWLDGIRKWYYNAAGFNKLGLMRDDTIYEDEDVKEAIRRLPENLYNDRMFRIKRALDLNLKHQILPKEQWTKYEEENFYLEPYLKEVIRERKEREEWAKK
Method: SPR analysis was performed to analyze the binding of the compounds to UQCRB. Control biotin and biotinylated terpestacin (BT) were sequentially immobilized onto the surface of a streptavidin-coated sensor chip and the apparent binding affinities were calculated by subtraction of resonance values of UQCRB binding to control biotin from those of UQCRB binding to BT. For competitive binding analysis, the compounds were each incubated with the UQCRB protein, and then the complexes were injected into flow cells of the sensor chip.
In order to further investigate the binding of A1893 and A1938 to UQCRB, the present inventors performed SPR (BIAcore) analysis. Control biotin and biotinylated terpestacin were sequentially immobilized onto the surface of a streptavidin-coated sensor chip. Competitive binding molecules (A1893 and A1938, 25 μM) were incubated with the purified UQCRB protein (25 μM) in the buffer (10 mM HEPES, 150 mM NaCl, 3 mM EDTA (pH 7.4)), and then UQCRB-competitive binding molecule complexes were injected onto the sensor chip at a flow rate of 30 μl/min. The surface of the sensor chip was regenerated by the injection of 5 μl of the regeneration buffer (50 mM NaOH). Molecular interaction analysis was performed using the BIAcore 2000 system (BIAcore AB), and the apparent binding affinities were calculated by the subtraction of resonance values of UQCRB binding to control biotin from those of UQCRB binding to biotinylated terpestacin. For competitive binding analysis, terpestacin and the compounds of the present invention were each incubated with the UQCRB protein, and then the complexes were injected into flow cells of the sensor chip.

HUVECs [1] = test: Invasiveness analysis (Transwell, VEGF-induced); assay type: cell-based, human; conditions: VEGF 30 ng/ml, 2.5 μM and 5 μM, 18 hours
Method: (§1) Serum-starved HUVECs were treated with VEGF (30 ng/mL) with or without A1893 or A1938 and then the in vitro angiogenesis analysis was performed.
Serum-starved human umbilical vein endothelial cells (HUVECs) were treated with VEGF with or without A1893 or A1938, and then the in vitro angiogenesis analysis was performed. The invasiveness of HUVECs was investigated using the Transwell chamber system with 8.0-μm pore-sized polycarbonate filter (Corning Costar). First, a lower portion of the filter was coated with 10 μl gelatin (10 mg/ml) for 1 hour, and an upper portion of the filter was coated with 10 μl Matrigel (3 mg/ml) for 2 hours. Then, 600 μl of the EBM-2 medium was put into the Transwell, and then, VEGF (30 ng/ml) and the compound of the present invention DPCN (2.5 μM and 5 μM) were added thereto. The coated filter was placed on the Transwell, and HUVECs (1×10^5 cells/well) were inoculated on the upper portion of the filter, following by incubation for 18 hours. After that, the cells were fixed with 70% methanol, and then stained with hematoxylin/eosin. Then, the total number of invaded cells was measured using an optical microscope at 100× magnification.

HUVECs [2] = test: Tube formation analysis on Matrigel; assay type: cell-based, human; conditions: VEGF 30 ng/ml, 2.5 μM and 5 μM, 8 hours
Method: as §1
Tube formation analysis was performed using HUVECs growing on Matrigel (Collaborative Biomedical Products). The 48-well plate was coated with 150 μl Matrigel, followed by polymerization at 37 for 2 hours. Then, human umbilical vein endothelial cells (HUVECs, 1×10^5 cells/well) were inoculated on Matrigel, and then VEGF (30 ng/ml) and the compound of the present invention DPCN (2.5 μM and 5 μM) were added thereto. The morphological change of cells was observed while the cells were incubated at room temperature for 8 hours. Tube formation was quantified by measuring the number of connected cells in randomly selected fields and dividing the measured number by the total number of cells in the same field.

HepG2 cells = test: Mitochondrial ROS generation analysis (DCF fluorescence); assay type: cell-based; conditions: HepG2 cells pretreated 30 minutes, then 1% O2 for 10 minutes
Method: Intracellular ROS levels were determined by the DCF fluorescence. HepG2 cells were pretreated with the compounds for 30 minutes, and then exposed to 1% O2 for 10 minutes. A1893 and A1938 suppressed hypoxia-induced mitochondrial ROS generation, which confirmed that A1893 and A1938 modulate the O2 sensing function of UQCRB.
The increase in ROS generation due to complex III during hypoxia triggers HIF-1α stabilization, and consequently mediates the expression of its target genes such as VEGF. UQCRB, which is an important component in mitochondrial complex III, acts as an O2 sensor and mediates hypoxia-induced tumor angiogenesis. In order to determine whether anti-angiogenic activity of A1893 and A1938 is associated with the modulation of the O2 sensing function of UQCRB, the present inventors investigated the mitochondrial ROS-mediated hypoxic signal transmission procedure of A1893 and A1938. HepG2 liver cancer cells were pretreated with A1893 and A1938 for 30 minutes, and then exposed to 1% O2 for 10 minutes. Intracellular ROS levels were determined by the DCF fluorescence. A1893 and A1938 suppressed the hypoxia-induced mitochondrial ROS generation in HepG2 cells in a dose-dependent manner (FIG. 5).

HUVECs [3] = test: Viability of endothelial cells; assay type: cell-based, human
[4] = stated with the invasion analysis
[5] = stated with the tube formation analysis

| IC50 (HIF-1α) [µM] | SMILES | also measured |
| --- | --- | --- |
| 10 | CCc1ccc(S(=O)(=O)Nc2cccc3ccc(O)cc23)cc1 [A1891, 4-ethyl-N-(7-hydroxy-naphthalen-1-yl)-benzene-sulfonamide] | – |
| 5 | CC(C)(C)c1ccc(S(=O)(=O)Nc2ccc(O)cc2)cc1 [A1893, 4-tert-butyl-N-(4-hydroxy-phenyl)-benzene-sulfonamide] | hypoxia-induced HIF-1α protein accumulation (HIF-1α): greatly reduced; binding efficiency of UQCRB to biotinylated terpestacin (BT) after co-incubation (UQCRB): significantly decreased; direct binding to UQCRB (UQCRB): directly bind to UQCRB; VEGF-induced invasion of HUVECs (HUVECs [1]): inhibited VEGF-induced invasion; tube formation of HUVECs (HUVECs [2]): inhibited the tube formation; hypoxia-induced mitochondrial ROS generation (HepG2 cells): suppressed; viability of endothelial cells (HUVECs [3]; [4]): without affecting viability; viability of endothelial cells (HUVECs [3]; [5]): without affecting viability |
| 5 | O=S(=O)(Nc1ccc(O)cc1)c1ccc(-c2ccccc2)cc1 [A1938, biphenyl-4-sulfonic acid (4-hydroxy-phenyl)-amide] | hypoxia-induced HIF-1α protein accumulation (HIF-1α): greatly reduced; binding efficiency of UQCRB to biotinylated terpestacin (BT) after co-incubation (UQCRB): significantly decreased; direct binding to UQCRB (UQCRB): directly bind to UQCRB; VEGF-induced invasion of HUVECs (HUVECs [1]): inhibited VEGF-induced invasion; tube formation of HUVECs (HUVECs [2]): inhibited the tube formation; hypoxia-induced mitochondrial ROS generation (HepG2 cells): suppressed; viability of endothelial cells (HUVECs [3]; [4]): without affecting viability; viability of endothelial cells (HUVECs [3]; [5]): without affecting viability |
| 10 | CC(C)(C)c1ccc(S(=O)(=O)Nc2ccc(O)cc2Cl)cc1 [A2000, 4-tert-butyl-N-(2-chloro-4-hydroxy-phenyl)-benzene-sulfonamide] | – |
| 5 | O=S(=O)(Nc1ccc(O)cc1Cl)c1ccc(-c2ccccc2)cc1 [A2001, biphenyl-4-sulfonic acid (2-chloro-4-hydroxy-phenyl)-amide] | – |
| 10 | CC(C)(C)c1ccc(S(=O)(=O)Nc2ccc(O)c(Cl)c2)cc1 [A2003, 4-tert-butyl-N-(3-chloro-4-hydroxy-phenyl)-benznene-sulfonamide] | – |
| 10 | CC(C)(C)c1ccc(S(=O)(=O)Nc2cc(Cl)c(O)c(Cl)c2)cc1 [A2006, 4-tert-butyl-N-(3,5-dichloro-4-hydroxy-phenyl)-benzene-sulfonamide] | – |
| 10 | CC(C)(C)c1ccc(S(=O)(=O)Nc2ccc(O)cc2F)cc1 [A2007, 4-tert-butyl-N-(2-fluoro-4-hydroxy-phenyl)-benzene-sulfonamide] | – |
| 5 | O=S(=O)(Nc1ccc(O)cc1F)c1ccc(-c2ccccc2)cc1 [A2008, biphenyl-4-sulfonic acid (2-fluoro-4-hydroxy-phenyl)-amide] | – |
| 10 | CC(C)(C)c1ccc(S(=O)(=O)Nc2ccc(O)c(F)c2)cc1 [A2010, 4-tert-butyl-N-(3-fluoro-4-hydroxy-phenyl)-benzene-sulfonamide] | – |
| 5 | O=S(=O)(Nc1cccc(O)c1)c1ccc(-c2ccccc2)cc1 [A2033, biphenyl-4-sulfonic acid (3-hydroxy-phenyl)-amide] | – |
| 10 | CC(C)(C)c1ccc(S(=O)(=O)Nc2ccc(O)cc2[N+](=O)[O-])cc1 [A2037, 4-tert-butyl-N-(2-nitro-4-hydroxy-phenyl)-benzene-sulfonamide] | – |
| 10 | O=S(=O)(Nc1cc(Cl)c(O)c(Cl)c1)c1ccc(-c2ccccc2)cc1 [A2043, biphenyl-4-sulfonic acid (3,5-dichloro-4-hydroxy-phenyl)-amide] | – |
| 10 | O=S(=O)(Nc1cc(Cl)c(O)c(Cl)c1)c1ccc2ccccc2c1 [A2044, naphthalene-3-sulfonic acid (3,5-dichloro-4-hydroxy-phenyl)-amide] | – |
| 10 | O=S(=O)(NCCc1ccc(O)cc1)c1ccc(-c2ccccc2)cc1 [A2060, biphenyl-4-sulfonic acid [2-(4-hydroxy-phenyl)-ethyl]-amide] | – |
| 10 | O=S(=O)(NC1CCC(CCO)CC1)c1ccc2ccccc2c1 (stereo not drawn) [A2069, naphthalene-2-sulfonic acid [4-(2-hydroxy-ethyl)-cyclohenxyl]-amide] | – |
| – | C/C1=C\C[C@]2(C)C(=O)C(O)=C([C@H](C)CO)[C@H]2C/C=C(\C)[C@@H](O)CC/C(C)=C/CC1 [terpestacin, reference compound] | binding efficiency of UQCRB to biotinylated terpestacin (BT) after co-incubation (UQCRB): significantly decreased |

| SMILES | IC50 (HIF-1α) [µM] | also measured |
| --- | --- | --- |
| O=[N+]([O-])c1cc(O)ccc1NS(=O)(=O)c1ccc(-c2ccccc2)cc1 [A2038, biphenyl-4-sulfonic acid (2-nitro-4-hydroxy-phenyl)-benzene-sulfonamide] | 5 | – |
| Cc1cc(NS(=O)(=O)c2ccc(-c3ccccc3)cc2)ccc1O [A2040, biphenyl-4-sulfonic acid (4-hydroxy-3-methyl-phenyl)-amide] | 5 | – |
| Cc1cc(NS(=O)(=O)c2ccc(-c3ccccc3)cc2)ccc1O [A2041, biphenyl-4-sulfonic acid (4-hydrox-3-methyl-phenyl)-amide] | 10 | – |
